Results reported in ChEMBL document CHEMBL5380862, “Unsymmetrical Phosphodiesters as GPR84 Antagonists with High Blood Exposure for the Treatment of Lung Inflammation” (J Med Chem, 2023).
The source made the active and inactive calls. The calls are words filed in the database; no cut-off is given here.

Key:
[1] = Aqueous solubility of the compound incubated overnight by HPLC-DAD analysis; format: physicochemical; details: aqueous medium
[2] = AUClast in ICR mouse at 2 mg/kg, iv administered as single dose; format: ADME, organism-based; parameters: dose 2 mg/kg, route iv; details: in vivo
[3] = Drug distribution in mouse plasma at 5 mg/kg, po administered as single dose and measured after 0.5 hrs by LC-MS analysis; format: ADME, organism-based
[4] = Drug distribution in mouse plasma at 5 mg/kg, po administered as single dose and measured after 8 hrs by LC-MS analysis; format: ADME, organism-based; details: read-out: Drug uptake
[5] = Drug distribution in mouse lung at 5 mg/kg, po administered as single dose and measured after 2 hrs by LC-MS analysis; format: ADME, organism-based; details: read-out: Drug uptake
[6] = target: T1, Free fatty acid receptor 4 (Homo sapiens) (UniProt Q5NUL3); experiment: Antagonist activity at GPR120 (unknown origin) expressed in HEK293 cells co-expressing Galpha16 assessed as inhibition of TUG-981 induced calcium response upto 100 uM incubated for 10 mins by calcium mobilization assay; format: functional, cell-based
T1 sequence (whole entry): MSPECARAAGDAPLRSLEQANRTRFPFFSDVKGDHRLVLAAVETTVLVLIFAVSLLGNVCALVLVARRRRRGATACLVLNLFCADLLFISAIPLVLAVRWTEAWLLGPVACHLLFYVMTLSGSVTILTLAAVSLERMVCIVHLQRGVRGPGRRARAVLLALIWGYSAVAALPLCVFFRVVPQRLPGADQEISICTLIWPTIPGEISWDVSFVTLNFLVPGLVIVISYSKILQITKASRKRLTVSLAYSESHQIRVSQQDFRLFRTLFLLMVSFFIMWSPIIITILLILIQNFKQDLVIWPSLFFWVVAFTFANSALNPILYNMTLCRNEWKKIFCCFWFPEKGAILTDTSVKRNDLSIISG

[7] = target: Beta-2 adrenergic receptor (Homo sapiens) (UniProt P07550); experiment: Antagonist activity at ARbeta2 (unknown origin) expressed in HEK293 cells co-expressing Galpha16 assessed as inhibition of Isoproterenol induced calcium response upto 100 uM incubated for 10 mins by calcium mobilization assay; format: functional, cell-based
Chain of Beta-2 adrenergic receptor (Homo sapiens) (P07550 whole entry, looked up): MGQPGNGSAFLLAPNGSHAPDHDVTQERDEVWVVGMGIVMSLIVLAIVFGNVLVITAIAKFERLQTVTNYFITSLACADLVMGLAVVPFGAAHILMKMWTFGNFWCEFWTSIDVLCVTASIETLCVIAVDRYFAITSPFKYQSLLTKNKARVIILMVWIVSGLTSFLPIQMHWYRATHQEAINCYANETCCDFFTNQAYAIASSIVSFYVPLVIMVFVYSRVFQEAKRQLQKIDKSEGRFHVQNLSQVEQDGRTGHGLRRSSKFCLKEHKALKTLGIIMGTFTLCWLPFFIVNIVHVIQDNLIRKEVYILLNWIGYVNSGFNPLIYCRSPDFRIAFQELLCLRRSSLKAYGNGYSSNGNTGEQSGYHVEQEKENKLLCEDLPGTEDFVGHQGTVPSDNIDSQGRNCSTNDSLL

[8] = target: Beta-3 adrenergic receptor (Homo sapiens) (UniProt P13945); experiment: Antagonist activity at ARbeta3 (unknown origin) expressed in HEK293 cells co-expressing Galpha16 assessed as inhibition of Isoproterenol induced calcium response upto 100 uM incubated for 10 mins by calcium mobilization assay; format: functional, cell-based
Chain of Beta-3 adrenergic receptor (Homo sapiens) (P13945 whole entry, looked up): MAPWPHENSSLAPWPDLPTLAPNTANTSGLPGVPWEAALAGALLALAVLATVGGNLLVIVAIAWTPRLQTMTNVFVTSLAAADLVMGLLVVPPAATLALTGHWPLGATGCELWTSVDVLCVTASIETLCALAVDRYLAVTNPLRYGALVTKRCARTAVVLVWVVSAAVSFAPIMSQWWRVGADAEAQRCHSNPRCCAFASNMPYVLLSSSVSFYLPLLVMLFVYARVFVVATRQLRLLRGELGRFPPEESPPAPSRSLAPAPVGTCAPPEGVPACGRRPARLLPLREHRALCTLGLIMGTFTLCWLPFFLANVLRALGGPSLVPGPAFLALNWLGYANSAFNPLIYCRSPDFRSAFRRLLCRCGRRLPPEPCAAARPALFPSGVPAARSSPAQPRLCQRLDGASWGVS

[9] = target: D(1A) dopamine receptor (Homo sapiens) (UniProt P21728); experiment: Antagonist activity at DRD1 (unknown origin) expressed in HEK293 cells co-expressing Galpha16 assessed as inhibition of dopamine induced calcium response upto 100 uM incubated for 10 mins by calcium mobilization assay; format: functional, cell-based
Chain of D(1A) dopamine receptor (Homo sapiens) (P21728 whole entry): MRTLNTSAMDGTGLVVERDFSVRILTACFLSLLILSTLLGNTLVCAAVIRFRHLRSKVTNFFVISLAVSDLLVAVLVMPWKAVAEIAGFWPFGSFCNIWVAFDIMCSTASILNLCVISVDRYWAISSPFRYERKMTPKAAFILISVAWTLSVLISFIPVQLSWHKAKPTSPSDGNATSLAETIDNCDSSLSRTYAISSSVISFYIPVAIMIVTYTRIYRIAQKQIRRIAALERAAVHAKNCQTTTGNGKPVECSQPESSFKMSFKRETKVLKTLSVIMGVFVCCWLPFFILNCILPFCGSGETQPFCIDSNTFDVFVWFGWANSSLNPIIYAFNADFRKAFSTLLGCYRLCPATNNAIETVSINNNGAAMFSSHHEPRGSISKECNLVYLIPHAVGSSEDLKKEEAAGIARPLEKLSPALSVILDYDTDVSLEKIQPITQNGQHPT

solubility [1]: 0.891 mg/mL
AUC(0-t) [2]: 1.68 µg·h/mL
concentration at 0.5 h [3]: 0.135 µg/mL
concentration at 8 h [4]: 0.0507 µg/mL
concentration at 2 h [5]: 60.5 ng/g
inhibition [6]: inactive
inhibition [7]: inactive
inhibition [8]: inactive
inhibition [9]: inactive
SMILES: O=P([O-])(OC1=Cc2c(Cl)cccc2Sc2ccccc21)OC1=Cc2c(Cl)cccc2Sc2ccccc21.[Na+]
